Tests used:
[1] = system: relapsed/refractory primary CLL samples; experiment: Annexin V/propidium iodide flow cytometry; assay type: cell-based; conditions: Homo sapiens; 8 BTKi/venetoclax relapsed/refractory samples; 24 h; read-out: IC50 (50% killing)
Adenosine A2A = Adenosine A2A (Homo sapiens, UniProt P29274); experiment: Eurofins Diversity Panel; assay type: binding; conditions: hum, Conc. 10 μM
[2] = system: Calcium Channel L-Type Dihydropyridine; experiment: Eurofins Diversity Panel; assay type: binding; conditions: rat, Conc. 10 μM
Dopamine D4.2 = Dopamine D4.2 (Homo sapiens, UniProt P21917, DEL265-296); experiment: Eurofins Diversity Panel; assay type: binding; conditions: hum, Conc. 10 μM
Endothelin ETB = Endothelin ETB (Homo sapiens, UniProt P24530); experiment: Eurofins Diversity Panel; assay type: binding; conditions: hum, Conc. 10 μM
Thyroid Hormone = experiment: Eurofins Diversity Panel; assay type: binding; conditions: rat, Conc. 10 μM
RET(M918T) = RET(M918T) (Homo sapiens, UniProt P07949, M918T); experiment: KINOMEscan: RET(M918T); assay type: binding; conditions: 100 nM, read-out: Percent Control
Sequence of RET(M918T) (P07949 29-1114 M918T): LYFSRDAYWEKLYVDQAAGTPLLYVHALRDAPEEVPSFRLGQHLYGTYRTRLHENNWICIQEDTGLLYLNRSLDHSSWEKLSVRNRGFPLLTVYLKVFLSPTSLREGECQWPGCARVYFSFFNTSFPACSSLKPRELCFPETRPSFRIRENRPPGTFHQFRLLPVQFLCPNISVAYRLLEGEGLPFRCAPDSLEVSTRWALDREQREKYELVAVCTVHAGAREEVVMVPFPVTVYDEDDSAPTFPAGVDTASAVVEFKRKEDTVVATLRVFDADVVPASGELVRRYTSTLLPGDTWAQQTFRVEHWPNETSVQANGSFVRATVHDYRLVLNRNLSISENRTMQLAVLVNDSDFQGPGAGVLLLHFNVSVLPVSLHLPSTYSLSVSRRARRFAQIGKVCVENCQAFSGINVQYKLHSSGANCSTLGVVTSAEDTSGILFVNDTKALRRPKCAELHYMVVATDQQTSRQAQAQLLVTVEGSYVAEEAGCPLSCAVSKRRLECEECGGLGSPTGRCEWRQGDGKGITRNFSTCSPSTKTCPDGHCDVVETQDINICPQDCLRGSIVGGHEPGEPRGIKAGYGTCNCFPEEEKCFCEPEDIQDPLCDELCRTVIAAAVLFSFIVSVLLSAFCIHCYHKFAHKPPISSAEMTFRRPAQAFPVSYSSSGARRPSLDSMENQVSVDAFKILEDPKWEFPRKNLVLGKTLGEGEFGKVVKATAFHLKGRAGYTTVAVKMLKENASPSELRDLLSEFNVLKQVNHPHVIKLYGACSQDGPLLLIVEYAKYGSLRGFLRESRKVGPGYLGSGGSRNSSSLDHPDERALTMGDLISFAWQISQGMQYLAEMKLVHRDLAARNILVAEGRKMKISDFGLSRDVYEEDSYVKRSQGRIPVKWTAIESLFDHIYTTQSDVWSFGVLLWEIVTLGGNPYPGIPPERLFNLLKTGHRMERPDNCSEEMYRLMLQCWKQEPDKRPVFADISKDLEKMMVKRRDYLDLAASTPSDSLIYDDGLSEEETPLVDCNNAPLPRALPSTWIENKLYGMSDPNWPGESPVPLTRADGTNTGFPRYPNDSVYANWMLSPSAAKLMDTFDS

RET(V804L) = RET(V804L) (Homo sapiens, UniProt P07949, V804L); experiment: KINOMEscan: RET(V804L); assay type: binding; conditions: 100 nM, read-out: Percent Control
Sequence of RET(V804L) (P07949 29-1114 V804L): as the sequence (P07949 29-1114 M918T) above, with V776L, T890M counted along it

SIK = SIK (Homo sapiens, UniProt P57059); experiment: KINOMEscan: SIK; assay type: binding; conditions: 100 nM, read-out: Percent Control
Sequence of SIK (P57059 whole entry): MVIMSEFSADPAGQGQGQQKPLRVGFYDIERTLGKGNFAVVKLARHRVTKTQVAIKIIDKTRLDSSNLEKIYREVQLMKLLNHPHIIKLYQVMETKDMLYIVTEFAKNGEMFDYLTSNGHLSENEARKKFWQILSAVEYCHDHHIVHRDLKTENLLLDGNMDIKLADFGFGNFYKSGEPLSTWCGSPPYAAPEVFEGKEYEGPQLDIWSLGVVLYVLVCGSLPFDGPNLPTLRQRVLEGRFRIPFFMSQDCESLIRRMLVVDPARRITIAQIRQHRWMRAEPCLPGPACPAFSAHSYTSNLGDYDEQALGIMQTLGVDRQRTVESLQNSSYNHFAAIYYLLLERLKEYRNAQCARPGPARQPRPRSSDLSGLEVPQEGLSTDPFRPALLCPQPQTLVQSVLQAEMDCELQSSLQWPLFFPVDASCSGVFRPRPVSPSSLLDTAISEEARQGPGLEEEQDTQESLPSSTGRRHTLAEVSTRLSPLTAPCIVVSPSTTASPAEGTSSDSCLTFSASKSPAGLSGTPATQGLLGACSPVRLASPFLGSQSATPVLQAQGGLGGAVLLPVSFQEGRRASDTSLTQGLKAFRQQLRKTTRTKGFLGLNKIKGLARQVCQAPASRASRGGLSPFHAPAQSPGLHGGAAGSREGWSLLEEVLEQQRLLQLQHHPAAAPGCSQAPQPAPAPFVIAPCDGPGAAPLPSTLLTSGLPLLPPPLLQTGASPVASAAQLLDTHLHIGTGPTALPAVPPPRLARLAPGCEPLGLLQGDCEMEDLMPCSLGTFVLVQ

SRMS = SRMS (Homo sapiens, UniProt Q9H3Y6); experiment: KINOMEscan: SRMS; assay type: binding; conditions: 100 nM, read-out: Percent Control
Sequence of SRMS (Q9H3Y6 whole entry): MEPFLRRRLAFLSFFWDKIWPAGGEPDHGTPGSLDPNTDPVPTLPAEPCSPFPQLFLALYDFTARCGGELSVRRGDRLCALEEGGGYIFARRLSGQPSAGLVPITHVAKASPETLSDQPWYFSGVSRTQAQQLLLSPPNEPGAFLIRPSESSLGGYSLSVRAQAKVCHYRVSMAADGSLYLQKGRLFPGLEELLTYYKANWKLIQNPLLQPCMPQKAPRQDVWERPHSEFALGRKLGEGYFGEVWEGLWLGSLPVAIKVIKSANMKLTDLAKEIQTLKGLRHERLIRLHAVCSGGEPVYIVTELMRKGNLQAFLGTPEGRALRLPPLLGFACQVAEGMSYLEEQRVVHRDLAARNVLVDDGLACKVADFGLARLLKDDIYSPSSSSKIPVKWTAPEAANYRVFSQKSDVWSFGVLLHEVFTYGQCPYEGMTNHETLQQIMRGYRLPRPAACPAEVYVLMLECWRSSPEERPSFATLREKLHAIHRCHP

STK16 = STK16 (Homo sapiens, UniProt O75716); experiment: KINOMEscan: STK16; assay type: binding; conditions: 100 nM, read-out: Percent Control
Sequence of STK16 (O75716 whole entry): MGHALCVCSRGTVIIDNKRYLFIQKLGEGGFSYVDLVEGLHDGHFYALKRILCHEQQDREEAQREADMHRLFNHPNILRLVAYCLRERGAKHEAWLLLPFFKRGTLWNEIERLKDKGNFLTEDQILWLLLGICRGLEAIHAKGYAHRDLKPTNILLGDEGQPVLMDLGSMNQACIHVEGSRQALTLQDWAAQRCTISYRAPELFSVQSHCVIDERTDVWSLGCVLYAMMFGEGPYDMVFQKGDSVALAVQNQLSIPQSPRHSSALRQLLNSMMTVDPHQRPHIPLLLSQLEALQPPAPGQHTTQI

STK33 = STK33 (Homo sapiens, UniProt Q9BYT3); experiment: KINOMEscan: STK33; assay type: binding; conditions: 100 nM, read-out: Percent Control
STK39 = STK39 (Homo sapiens, UniProt Q9UEW8); experiment: KINOMEscan: STK39; assay type: binding; conditions: 100 nM, read-out: Percent Control
ULK2 = ULK2 (Homo sapiens, UniProt Q8IYT8); experiment: KINOMEscan: ULK2; assay type: binding; conditions: 100 nM, read-out: Percent Control
ULK3 = ULK3 (Homo sapiens, UniProt Q6PHR2); experiment: KINOMEscan: ULK3; assay type: binding; conditions: 100 nM, read-out: Percent Control
Sequence of ULK3 (Q6PHR2 whole entry): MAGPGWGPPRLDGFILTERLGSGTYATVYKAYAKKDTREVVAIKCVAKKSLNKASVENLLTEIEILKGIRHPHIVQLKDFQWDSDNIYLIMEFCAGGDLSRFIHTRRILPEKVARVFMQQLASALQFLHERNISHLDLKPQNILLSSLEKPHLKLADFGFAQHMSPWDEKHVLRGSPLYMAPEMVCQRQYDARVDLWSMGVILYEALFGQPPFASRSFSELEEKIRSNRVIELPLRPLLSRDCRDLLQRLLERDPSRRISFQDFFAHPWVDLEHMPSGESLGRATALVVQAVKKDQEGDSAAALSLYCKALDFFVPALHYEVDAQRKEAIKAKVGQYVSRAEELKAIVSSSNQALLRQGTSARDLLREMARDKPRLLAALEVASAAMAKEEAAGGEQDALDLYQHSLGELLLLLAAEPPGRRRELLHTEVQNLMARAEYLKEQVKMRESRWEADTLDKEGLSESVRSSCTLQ

WEE1 = WEE1 (Homo sapiens, UniProt P30291); experiment: KINOMEscan: WEE1; assay type: binding; conditions: 100 nM, read-out: Percent Control
ASK1 = ASK1 (Homo sapiens, UniProt Q99683); experiment: KINOMEscan: ASK1; assay type: binding; conditions: 1000 nM, read-out: Percent Control
CAMKK2 = CAMKK2 (Homo sapiens, UniProt Q96RR4); experiment: KINOMEscan: CAMKK2; assay type: binding; conditions: 1000 nM, read-out: Percent Control
CASK = CASK (Homo sapiens, UniProt O14936); experiment: KINOMEscan: CASK; assay type: binding; conditions: 1000 nM, read-out: Percent Control
CDK4-cyclinD3 = CDK4-cyclinD3 (Homo sapiens, UniProt P11802); experiment: KINOMEscan: CDK4-cyclinD3; assay type: binding; conditions: 1000 nM, read-out: Percent Control
CLK3 = CLK3 (Homo sapiens, UniProt P49761); experiment: KINOMEscan: CLK3; assay type: binding; conditions: 1000 nM, read-out: Percent Control
CSNK2A2 = CSNK2A2 (Homo sapiens, UniProt P19784); experiment: KINOMEscan: CSNK2A2; assay type: binding; conditions: 1000 nM, read-out: Percent Control
EGFR(L747-T751del,Sins) = experiment: KINOMEscan: EGFR(L747-T751del,Sins); assay type: binding, human; conditions: 1000 nM
EPHA1 = EPHA1 (Homo sapiens, UniProt P21709); experiment: KINOMEscan: EPHA1; assay type: binding; conditions: 1000 nM, read-out: Percent Control
ERK8 = ERK8 (Homo sapiens, UniProt Q8TD08); experiment: KINOMEscan: ERK8; assay type: binding; conditions: 1000 nM, read-out: Percent Control
HASPIN = HASPIN (Homo sapiens, UniProt Q8TF76); experiment: KINOMEscan: HASPIN; assay type: binding; conditions: 1000 nM, read-out: Percent Control
HIPK3 = HIPK3 (Homo sapiens, UniProt Q9H422); experiment: KINOMEscan: HIPK3; assay type: binding; conditions: 1000 nM, read-out: Percent Control
IGF1R = IGF1R (Homo sapiens, UniProt P08069); experiment: KINOMEscan: IGF1R; assay type: binding; conditions: 1000 nM, read-out: Percent Control
Sequence of IGF1R (P08069 31-1367): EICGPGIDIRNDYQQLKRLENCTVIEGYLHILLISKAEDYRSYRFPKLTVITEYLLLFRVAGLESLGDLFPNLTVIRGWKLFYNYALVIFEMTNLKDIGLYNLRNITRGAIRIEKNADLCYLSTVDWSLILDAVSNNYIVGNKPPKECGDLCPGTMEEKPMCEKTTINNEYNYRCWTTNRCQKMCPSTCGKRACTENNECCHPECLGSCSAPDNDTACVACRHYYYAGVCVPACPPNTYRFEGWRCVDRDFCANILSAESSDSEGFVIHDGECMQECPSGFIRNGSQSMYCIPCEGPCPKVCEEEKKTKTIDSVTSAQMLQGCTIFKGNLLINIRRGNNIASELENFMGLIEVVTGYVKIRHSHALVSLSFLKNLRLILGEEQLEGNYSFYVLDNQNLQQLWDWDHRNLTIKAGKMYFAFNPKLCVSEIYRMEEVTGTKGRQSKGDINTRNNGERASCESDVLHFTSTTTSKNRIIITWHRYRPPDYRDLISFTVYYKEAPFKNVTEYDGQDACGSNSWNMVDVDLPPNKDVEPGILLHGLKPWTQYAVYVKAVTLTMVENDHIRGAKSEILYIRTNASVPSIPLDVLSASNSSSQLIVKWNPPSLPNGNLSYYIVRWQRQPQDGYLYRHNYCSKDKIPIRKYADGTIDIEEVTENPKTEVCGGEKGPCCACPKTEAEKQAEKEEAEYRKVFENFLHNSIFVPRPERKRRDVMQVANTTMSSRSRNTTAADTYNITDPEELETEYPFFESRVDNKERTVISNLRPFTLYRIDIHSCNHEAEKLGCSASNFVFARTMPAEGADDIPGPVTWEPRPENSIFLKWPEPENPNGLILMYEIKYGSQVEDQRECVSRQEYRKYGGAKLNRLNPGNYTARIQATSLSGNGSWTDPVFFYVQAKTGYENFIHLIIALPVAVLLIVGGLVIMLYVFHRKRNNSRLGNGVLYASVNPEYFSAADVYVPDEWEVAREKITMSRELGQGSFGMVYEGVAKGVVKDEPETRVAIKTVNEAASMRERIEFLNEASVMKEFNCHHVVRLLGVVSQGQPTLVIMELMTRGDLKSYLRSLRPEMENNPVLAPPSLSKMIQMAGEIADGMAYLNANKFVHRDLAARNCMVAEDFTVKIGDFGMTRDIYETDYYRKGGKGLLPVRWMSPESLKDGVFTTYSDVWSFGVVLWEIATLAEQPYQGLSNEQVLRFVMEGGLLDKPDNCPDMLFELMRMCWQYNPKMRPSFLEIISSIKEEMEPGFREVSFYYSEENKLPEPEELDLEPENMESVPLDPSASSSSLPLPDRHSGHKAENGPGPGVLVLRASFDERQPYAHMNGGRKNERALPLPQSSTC

KIT(V559D,T670I) = KIT(V559D,T670I) (Homo sapiens, UniProt P10721, T670I/V559D); experiment: KINOMEscan: KIT(V559D,T670I); assay type: binding; conditions: 1000 nM, read-out: Percent Control

Sequence of Adenosine A2A (P29274 whole entry): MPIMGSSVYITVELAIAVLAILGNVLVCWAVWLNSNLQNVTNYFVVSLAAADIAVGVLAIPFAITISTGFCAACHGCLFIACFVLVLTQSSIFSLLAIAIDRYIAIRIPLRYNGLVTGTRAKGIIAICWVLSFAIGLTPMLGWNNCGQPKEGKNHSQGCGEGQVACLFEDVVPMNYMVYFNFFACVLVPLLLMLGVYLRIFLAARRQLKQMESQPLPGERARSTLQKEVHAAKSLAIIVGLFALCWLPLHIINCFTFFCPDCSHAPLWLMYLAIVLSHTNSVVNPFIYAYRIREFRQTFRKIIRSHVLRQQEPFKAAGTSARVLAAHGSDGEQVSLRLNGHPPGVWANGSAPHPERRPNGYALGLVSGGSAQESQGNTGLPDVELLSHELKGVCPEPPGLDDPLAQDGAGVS

## COc1cc(F)ccc1-c1cc(Nc2cc(CS(C)(=N)=O)ccn2)ncc1F (centres unmarked) [VIP152]
[1]
  IC50: ~1000 nM
Adenosine A2A
  inhibition at 10 µM: 22%
[2]
  % Inh.: 7%
Dopamine D4.2
  inhibition at 10 µM: 32%
Endothelin ETB
  inhibition at 10 µM: 3%
Thyroid Hormone
  % Inh.: 20%
RET(M918T)
  remaining binding at 0.1 µM: 100%
RET(V804L)
  remaining binding at 0.1 µM: 100%
SIK
  remaining binding at 0.1 µM: 100%
SRMS
  remaining binding at 0.1 µM: 98%
STK16
  remaining binding at 0.1 µM: 100%
STK33
  remaining binding at 0.1 µM: 88%
STK39
  remaining binding at 0.1 µM: 100%
ULK2
  remaining binding at 0.1 µM: 100%
ULK3
  remaining binding at 0.1 µM: 96%
WEE1
  remaining binding at 0.1 µM: 98%
ASK1
  remaining binding at 1 µM: 97%
CAMKK2
  remaining binding at 1 µM: 16%
CASK
  remaining binding at 1 µM: 95%
CDK4-cyclinD3
  remaining binding at 1 µM: 14%
CLK3
  remaining binding at 1 µM: 85%
CSNK2A2
  remaining binding at 1 µM: 69%
EGFR(L747-T751del,Sins)
  Percent Control: 97%
EPHA1
  remaining binding at 1 µM: 78%
ERK8
  remaining binding at 1 µM: 58%
HASPIN
  remaining binding at 1 µM: 99%
HIPK3
  remaining binding at 1 µM: 66%
IGF1R
  remaining binding at 1 µM: 100%
KIT(V559D,T670I)
  remaining binding at 1 µM: 64%

Reference: publication PMC9898036, “VIP152 is a selective CDK9 inhibitor with pre-clinical in vitro and in vivo efficacy in chronic lymphocytic leukemia” (Leukemia, 2022)
